Measurements reported in US11254640B2, “N-substituted indoles and other heterocycles for treating brain disorders” (The Regents of the University of California, priority 2019, dated 2022).
Read-outs that look alike come from different tables or passages of the source.

Assays:
Format in all cases: cell-based
5HT2A sensor [1] = assay: 5HT2A sensor assay, antagonist mode (sLight1.3s HEK293T stable line); details: relative to 5-HT at 100 nM; for 5HT2A Antagonist mean @ 100 nM (%): 100 nM compound; for 5HT2A Antagonist mean @ 10 μM (%): 10 μM compound; for 5HT2A Antagonist mean @ 100 μM (%): 100 μM compound
Protocol: In some embodiments, the 5HT2A sensor assay is in an antagonist mode.
(§1) 5HT2A Sensor Assays. HEK293T (ATCC) 5HT2A sensor stable line (sLight1.3s) was generated via lentiviral transduction of HIV-EF1α-sLight1.3 and propagated from a single colony. Lentivirus was produced using 2nd generation lentiviral plasmids pHIV-EF1α-sLight1.3, pHCMV-G, and pCMV-deltaR8.2.
(§2) For the screening of the 41 compounds, sLight1.3s cells were plated in 96-well plates at a density of 40000 24-hours prior to imaging. On the day of imaging, compounds solubilized in DMSO were diluted from the 100 mM stock solution to working concentrations of 1 mM, 100 μM and 1 μM with a DMSO concentration of 1%. Immediately prior to imaging, cells growing in DMEM (Gibco) were washed 2× with HBSS (Gibco) and in agonist mode 180 μL of HBSS or in antagonist mode 160 μL of HBSS was added to each well after the final wash. For agonist mode, images were taken before and after the addition of the 20 μL compound working solution into the wells containing 180 μL HBSS. This produced final compound concentrations of 100 μM, 10 μM and 100 nM with a DMSO concentration of 0.1%. For antagonist mode, images were taken before and after addition of 20 μL of 900 nM 5-HT and again after 20 μL of the compound working solutions to produce final concentrations of 100 nM for 5HT and 100 μM, 10 μM and 100 nM for the compounds with a DMSO concentration of 0.1%. Each compound was tested in triplicates (3 wells) for each concentration (100 μM, 10 μM and 100 nM). Additionally, within each plate, 100 nM 5HT and 0.1% DMSO controls were also imaged.
(§3) Imaging was performed using the Leica DMi8 inverted microscope with a 40× objective using the FITC preset with an excitation of 460 nm and emission of 512-542 nm. For each well, the cellular membrane where the 5HT2A sensor is targeted was autofocused using the adaptive focus controls and 5 images from different regions within the well were taken with each image processed from a 2×2 binning.
(§4) For data processing, the membranes from each image was segmented and analyzed using a custom algorithm written in MATLAB producing a single raw fluorescence intensity value. For each well the 5 raw fluorescence intensity values generated from the 5 images were averaged and the change in fluorescence intensity (dFF) was calculated as: dFF=(Fsat−Fapo)/Fapo
(§5) For both agonist and antagonist modes, the fluorescence intensity values before compound addition in HBSS only were used as the Fapo values while the fluorescence intensity values after compound addition were used as the Fsat values.
(§6) For agonist mode, data are as percent activation relative to 5HT, where 0 is the average of the DMSO wells and 100 is the average of the 100 uM 5HT wells. For antagonist mode, the inactivation score was calculated as: Inactivation score=(dFFF(Compound+5HT)−dFF(5HT))/dFF(5HT)

5HT2A = biological target: T1, 5HT2A (Homo sapiens, UniProt P28223); assay: Calcium flux assay (Calcium secondary messenger pathway); details: agonist mode
T1 construct: expressed in transfected cells
Description: Calcium Flux Assay. Calcium Secondary Messenger Pathway. The Calcium No Wash^PLUS assay monitors the activation of a GPCR (e.g., 5HT2A) via Gq secondary messenger signaling in a live cell, non-imaging assay format. Calcium mobilization in PathHunter® cell lines or other cell lines stably expressing Gq-coupled GPCRs (e.g., 5HT2A) is monitored using a calcium-sensitive dye that is loaded into cells. GPCR (e.g., 5HT2A) activation by a compound results in the release of calcium from intracellular stores and an increase in dye fluorescence that is measured in real-time. In some embodiments, the ability of a compound of the present invention to modulate 5-HT2A function is determined using a calcium flux assay. In some embodiments, a compound of the present invention activates a calcium flux assay.
Calcium Secondary Messenger Pathway. Cell lines were expanded from freezer stocks according to standard procedures. Cells were seeded in a total volume of 20 μL into black-walled, clear-bottom, Poly-D-lysine coated 384-well microplates and incubated at 37° C. for the appropriate time prior to testing. Assays were performed in 1× Dye Loading Buffer consisting of 1× Dye, 1× Additive A and 2.5 mM Probenecid in HBSS/20 mM Hepes. Probenicid was prepared fresh. Cells were loaded with dye prior to testing. Media was aspirated from cells and replaced with 20 μL Dye Loading Buffer. Cells were incubated for 30-60 minutes at 37° C.
For agonist determination, cells were incubated with sample to induce response. After dye loading, cells were removed from the incubator and 10 μL HBSS/20 mM Hepes was added. 3× vehicle was included in the buffer when performing agonist dose curves to define the EC80 for subsequent antagonist assays. Cells were incubated for 30 minutes at room temperature in the dark to equilibrate plate temperature. Intermediate dilution of sample stocks was performed to generate 4× sample in assay buffer. Compound agonist activity was measured on a FLIPR Tetra (MDS). Calcium mobilization was monitored for 2 minutes and 10 μL 4× sample in HBSS/20 mM Hepes was added to the cells 5 seconds into the assay.
Compound activity was analyzed using CBIS data analysis suite (ChemInnovation, CA). For agonist mode assays, percentage activity is calculated using the following formula: % Activity=100%×(mean RFU of test sample−mean RFU of vehicle control)/(mean MAX RFU control ligand−mean RFU of vehicle control).

rat cortical neurons = assay: Neurite outgrowth assay; details: Cortical neurone, 1 hour treatment at DIV 4, analysed DIV 7, fold vs DMSO control
Description: Neurite outgrowth assay. Changes in the pattern of neurite outgrowth have been implicated in neurodegenerative disorders as well as traumatic injuries. The discovery of new compounds that can positively affect neuritogenesis are important for developing new therapeutics for neurological diseases. Measurement of neurite outgrowth of rat cortical neurons using an automated image-based assay was used to determine the neuroplastic effects of the compounds of the present invention. In some embodiments, a compound of the present invention increases the pattern of neurite outgrowth. In some embodiments, a compound of the present invention increases neurite average length compared to a control. In some embodiments, a compound of the present invention increases neurite branch points compared to a control. In some embodiments, a compound of the present invention increases neurite average length and neurite branch points compared to a control.
Neurite Outgrowth Assay. Rat cortical neurons (20,000 cells/well) were freshly isolated from embryonic day 18 rats and cultured in Neurobasal Medium (+B27). The cultured cells were plated in 96 well-plates (avoiding external wells). At DIV 4, the neurons were treated with compound or control (10 μM) for 1 hour followed by complete washout of the compound. At DIV 7, the neurons were analyzed. The experiments were performed in triplicate. Neurite outgrowth was measured analyzing the following parameters: Number of Cell Bodies, total neurite length (pixels), Root Count, Segments, Extremities Count and node points. Changes in the pattern of neurite outgrowth of the neurons were analyzed by immunocytochemistry against β-III-tubulin. Pictures were acquired by the CellInsight CX7 from Thermo Fisher and analyzed using its software. Results generated in the equipment were maximum neurite length, extremity count, root count, dendrite branch points, and total neurite length. The results were compared to DMSO control, representing the fold-change in neuronal outgrowth.

5HT2A sensor [2] = assay: 5HT2A sensor assay, agonist mode (sLight1.3s HEK293T stable line); details: percent relative to 5-HT at 100 uM; for 5HT2A Agonist mean @ 100 nM (%): 100 nM compound; for 5HT2A Agonist mean @ 10 μM (%): 10 μM compound; for 5HT2A Agonist mean @ 100 μM (%): 100 μM compound
Protocol: In some embodiments, hallucinogenic potential of a compound of the present invention is determined in vitro. In some embodiments, hallucinogenic potential of a compound of the present invention is determined using a 5HT2A sensor assay. In some embodiments, the 5HT2A sensor assay is in an agonist mode or an antagonist mode. In some embodiments, the 5HT2A sensor assay is in an agonist mode.
as §1, §2, §3, §4, §5, §6

[3] = read-out: Neurite Average Length @ 10 μM
[4] = read-out: Neurite Branch Points: @ 10 μM

T1 sequence (P28223 whole entry): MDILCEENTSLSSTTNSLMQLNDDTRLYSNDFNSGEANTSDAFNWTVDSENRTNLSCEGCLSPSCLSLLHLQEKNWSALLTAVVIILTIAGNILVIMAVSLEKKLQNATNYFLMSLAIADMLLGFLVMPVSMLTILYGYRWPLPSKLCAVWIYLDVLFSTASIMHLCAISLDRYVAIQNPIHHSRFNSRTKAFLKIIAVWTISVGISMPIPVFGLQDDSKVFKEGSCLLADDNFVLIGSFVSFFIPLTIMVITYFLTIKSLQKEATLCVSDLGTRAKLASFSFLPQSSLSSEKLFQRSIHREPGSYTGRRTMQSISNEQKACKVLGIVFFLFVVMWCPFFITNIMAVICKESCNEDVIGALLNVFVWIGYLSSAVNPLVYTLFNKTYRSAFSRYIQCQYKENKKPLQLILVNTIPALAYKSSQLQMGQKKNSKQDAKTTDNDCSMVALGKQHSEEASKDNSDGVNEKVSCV

| SMILES | 5HT2A Antagonist mean @ 100 nM (%) (5HT2A sensor [1]) | 5HT2A Antagonist mean @ 10 μM (%) (5HT2A sensor [1]) | 5HT2A Antagonist mean @ 100 μM (%) (5HT2A sensor [1]) | EC50 (5HT2A) | fold induction at 10 µM (rat cortical neurons; [3]) | fold induction at 10 µM (rat cortical neurons; [4]) | 5HT2A Agonist mean @ 100 nM (%) (5HT2A sensor [2]) | 5HT2A Agonist mean @ 10 μM (%) (5HT2A sensor [2]) | 5HT2A Agonist mean @ 100 μM (%) (5HT2A sensor [2]) |
| --- | --- | --- | --- | --- | --- | --- | --- | --- | --- |
| COc1ccc2c(ccn2CCN2CCCC2)c1 [Example 44, 5-methoxy-1-(2-(pyrrolidin-1-yl)ethyl)-1H-indole] | C (inhibits 5HT response by <75%) | A (inhibits 5HT response by >100%) | A (inhibits 5HT response by >100%) | > 10 µM | 1.5 to 3 | > 3 | B (does not activate 5HT2A sensor assay in agonist mode) | B (does not activate 5HT2A sensor assay in agonist mode) | B (does not activate 5HT2A sensor assay in agonist mode) |
| COc1ccc2c(ccn2CCN2CCCCC2)c1 [Example 45, 5-methoxy-1-(2-(piperidin-1-yl)ethyl)-1H-indole] | A (inhibits 5HT response by >100%) | B (inhibits 5HT response by 75% to 100%) | A (inhibits 5HT response by >100%) | > 10 µM | 1.5 to 3 | 1.5 to 3 | B (does not activate 5HT2A sensor assay in agonist mode) | B (does not activate 5HT2A sensor assay in agonist mode) | B (does not activate 5HT2A sensor assay in agonist mode) |
| COc1ccc2c(ccn2CCN2CCOCC2)c1 [Example 46, 4-(2-(5-methoxy-1H-indol-1-yl)ethyl)morpholine] | A (inhibits 5HT response by >100%) | A (inhibits 5HT response by >100%) | A (inhibits 5HT response by >100%) | > 10 µM | 1.5 to 3 | 1.5 to 3 | B (does not activate 5HT2A sensor assay in agonist mode) | B (does not activate 5HT2A sensor assay in agonist mode) | B (does not activate 5HT2A sensor assay in agonist mode) |
| Clc1ccc2c(ccn2CCN2CCCC2)c1 [Example 47, 5-chloro-1-(2-(pyrrolidin-1-yl)ethyl)-1H-indole] | A (inhibits 5HT response by >100%) | A (inhibits 5HT response by >100%) | A (inhibits 5HT response by >100%) | < 10 µM | 1.5 to 3 | > 3 | B (does not activate 5HT2A sensor assay in agonist mode) | B (does not activate 5HT2A sensor assay in agonist mode) | B (does not activate 5HT2A sensor assay in agonist mode) |
| Clc1ccc2c(ccn2CCN2CCCCC2)c1 [Example 48, 5-chloro-1-(2-(piperidin-1-yl)ethyl)-1H-indole] | A (inhibits 5HT response by >100%) | A (inhibits 5HT response by >100%) | A (inhibits 5HT response by >100%) | > 10 µM | 1.5 to 3 | 1.5 to 3 | B (does not activate 5HT2A sensor assay in agonist mode) | B (does not activate 5HT2A sensor assay in agonist mode) | B (does not activate 5HT2A sensor assay in agonist mode) |
| Clc1ccc2c(ccn2CCN2CCOCC2)c1 [Example 49, 4-(2-(5-chloro-1H-indol-1-yl)ethyl)morpholine] | A (inhibits 5HT response by >100%) | B (inhibits 5HT response by 75% to 100%) | C (inhibits 5HT response by <75%) | > 10 µM | 1.5 to 3 | 1.5 to 3 | B (does not activate 5HT2A sensor assay in agonist mode) | B (does not activate 5HT2A sensor assay in agonist mode) | A (activates 5HT2A sensor assay in agonist mode) |
| FC(F)(F)Oc1ccc2c(ccn2CCN2CCCC2)c1 [Example 50, 1-(2-(pyrrolidin-1-yl)ethyl)-5-(trifluoromethoxy)-1H-indole] | A (inhibits 5HT response by >100%) | B (inhibits 5HT response by 75% to 100%) | A (inhibits 5HT response by >100%) | > 10 µM | 1.5 to 3 | 1.5 to 3 | B (does not activate 5HT2A sensor assay in agonist mode) | B (does not activate 5HT2A sensor assay in agonist mode) | A (activates 5HT2A sensor assay in agonist mode) |
